According to US20250109134A1 (Ascentage Pharma (Suzhou) Co., Ltd., priority 2022, published 2025):

Assay: Polymorph screening (suspension, anti-solvent, gas-liquid diffusion, slow volatilization methods), resulting form by XRPD
Assay type: physicochemical
Conditions: for XRPD results: methanol solution, no precipitation, open-to-air volatilization
Method: The sample was quickly centrifuged (6000 rpm, 5 min) to remove a supernatant. The resulting precipitate was subjected to vacuum drying (40° C., −0.1 MPa) for 20 h, followed by physical characterization.
The resulting precipitate was subjected to vacuum drying at 40° C. for 20 h, followed by physical characterization.
No clear solution was obtained, and the sample was still undissolved after 1 mL of solvent was added. Then, 500 μL of poor solvent (acetone, ACN, MeOH, EtOAc, THE, or […]) was added, and 40 mg of the sample was added to perform an experiment by a suspension method. All suspension samples were stirred at 50° C. for 2 days and quickly centrifuged (6000 rpm, 5 min) to remove a supernatant. The resulting solid was subjected to vacuum drying at 40° C. for 20 h, followed by physical characterization.
The compound of formula I was subjected to polymorph screening with DCM as a good solvent and with MeOH, EtOH, THE, or EA as an anti-solvent, and was dissolved in both DCM and MeOH systems. The suspension sample was stirred for 2 days and quickly centrifuged to remove a supernatant. The resulting precipitate was subjected to vacuum drying at 25° C. for 20 h, followed by physical characterization.
The resulting precipitate was subjected to vacuum drying at room temperature for 20 h, followed by physical characterization.
The resulting precipitate was subjected to vacuum drying for 20 h.
Sonication was performed for 1 min to obtain a clear solution, which was filtered through a 0.22 μm filter membrane and aliquoted into seven 8 mL glass flasks. An anti-solvent was added until precipitation occurred. The sample was stirred at room temperature for 1 day and quickly centrifuged. The resulting solid precipitate was subjected to vacuum drying.
Then, an anti-solvent was added until precipitation occurred, and the mixture was stirred at room temperature overnight and quickly centrifuged (6000 rpm, 6 min) to remove a supernatant. The resulting precipitate was subjected to vacuum drying for 20 h.
Then, the solution was added to a 20 mL glass flask containing 2 mL of an anti-solvent (shown in the following table), and the flask was tightly capped at room temperature and placed in a fume hood for diffusion. When precipitation occurred, the flask was taken out, and the resulting precipitate was subjected to vacuum drying for 20 h.
The flask placed in a fume hood at room temperature for diffusion. When precipitation occurred, the flask was taken out, and the resulting precipitate was subjected to vacuum drying for 20 h.
The mixture was stirred at 50° C. or room temperature for 6 days and quickly centrifuged (6000 rpm, […]) to remove a supernatant. The resulting precipitate was subjected to vacuum drying for 20 h.

[1] = solvent 1,4-Dixoane, suspension, 6 days

## CC(C)N1Cc2cc(C(F)(F)F)ncc2-c2cnc(NCc3c(F)ccc4c3CCO4)n3cnc(c23)C1=O
[1]
  Crystalline form results 50° C.: 1,4-dioxane solvate
  Crystalline form results Room temperature: 1,4-dioxane solvate

## CC(C)N1Cc2cc(C(F)(F)F)ncc2-c2cnc(NCc3c(F)ccc4c3CCO4)n3cnc(c23)C1=O.Cl
Solvent 1,4-dioxane, suspension, 40° C., 3 days, from crystalline form A of hydrochloride salt
  Crystalline form results: Crystalline form A of hydrochloride salt
Solvent 88% acetone, suspension, 40° C., 3 days, from crystalline form A of hydrochloride salt
  Crystalline form results: Crystalline form B
Solvent ACN, suspension, 40° C., 3 days, from crystalline form A of hydrochloride salt
  Crystalline form results: Crystalline form A of hydrochloride salt
Solvent Acetone, suspension, 40° C., 3 days, from crystalline form A of hydrochloride salt
  Crystalline form results: Crystalline form A of hydrochloride salt
Solvent EtOAc, suspension, 40° C., 3 days, from crystalline form A of hydrochloride salt
  Crystalline form results: Crystalline form A of hydrochloride salt
Solvent EtOH, suspension, 40° C., 3 days, from crystalline form A of hydrochloride salt
  Crystalline form results: Ethanol solvate of hydrochloride salt
Solvent EtOH—H2O = 3-1, suspension, 40° C., 3 days, from crystalline form A of hydrochloride salt
  Crystalline form results: Crystalline form A
Solvent H2O, suspension, 40° C., 3 days, from crystalline form A of hydrochloride salt
  Crystalline form results: Crystalline form A of hydrochloride salt
Solvent IPA, suspension, 40° C., 3 days, from crystalline form A of hydrochloride salt
  Crystalline form results: Isopropanol solvate of hydrochloride salt
Solvent MeOH, suspension, 40° C., 3 days, from crystalline form A of hydrochloride salt
  Crystalline form results: Partial dissociation into crystalline form A
Solvent MeOH—H2O = 3-1, suspension, 40° C., 3 days, from crystalline form A of hydrochloride salt
  Crystalline form results: Crystalline form A
Solvent Toluene, suspension, 40° C., 3 days, from crystalline form A of hydrochloride salt
  Crystalline form results: Crystalline form A of hydrochloride salt
Solvent n-butanol, suspension, 40° C., 3 days, from crystalline form A of hydrochloride salt
  Crystalline form results: Crystalline form A of hydrochloride salt

## CC(C)N1Cc2cc(C(F)(F)F)ncc2-c2cnc(NCc3c(F)ccc4c3CCO4)n3cnc(c23)C1=O.CS(=O)(=O)O
anti-solvent method, good solvent DCM/MeOH = 2-1 (20 mg/mL), anti-solvent Methyl acetate, room temperature overnight
  Crystalline form results: No precipitation
anti-solvent method, good solvent DMF (50 mg/mL), anti-solvent Acetonitrile, room temperature overnight
  Crystalline form results: Crystalline form A
anti-solvent method, good solvent DMF (50 mg/mL), anti-solvent Dimethyl tetrahydrofuran, room temperature overnight
  Crystalline form results: No precipitation
anti-solvent method, good solvent DMF (50 mg/mL), anti-solvent Methyl acetate, room temperature overnight
  Crystalline form results: Dissociation into a free base
anti-solvent method, good solvent DMF (50 mg/mL), anti-solvent n-heptane, room temperature overnight
  Crystalline form results: No precipitation
anti-solvent method, good solvent MeOH (10 mg/mL), anti-solvent Acetonitrile, room temperature overnight
  Crystalline form results: No precipitation
anti-solvent method, good solvent MeOH (10 mg/mL), anti-solvent Dimethyl tetrahydrofuran, room temperature overnight
  Crystalline form results: No precipitation
anti-solvent method, good solvent MeOH (10 mg/mL), anti-solvent Methyl acetate, room temperature overnight
  Crystalline form results: No precipitation
anti-solvent method, good solvent MeOH (10 mg/mL), anti-solvent n-heptane, room temperature overnight
  Crystalline form results: No precipitation
anti-solvent method, good solvent NMP (50 mg/mL), anti-solvent Acetonitrile, room temperature overnight
  Crystalline form results: Presumably an NMP solvate
anti-solvent method, good solvent NMP (50 mg/mL), anti-solvent Dimethyl tetrahydrofuran, room temperature overnight
  Crystalline form results: Presumably an NMP solvate
anti-solvent method, good solvent NMP (50 mg/mL), anti-solvent Ethyl acetate, room temperature overnight
  Crystalline form results: Dissociation into a free base
anti-solvent method, good solvent NMP (50 mg/mL), anti-solvent Methyl acetate, room temperature overnight
  Crystalline form results: Presumably an NMP solvate
anti-solvent method, good solvent NMP (50 mg/mL), anti-solvent Tert-butyl methyl ether, room temperature overnight
  Crystalline form results: Presumably an NMP solvate
anti-solvent method, good solvent NMP (50 mg/mL), anti-solvent n-heptane, room temperature overnight
  Crystalline form results: Presumably an NMP solvate
gas-liquid diffusion method, good solvent DMF (50 mg/mL), anti-solvent 2-MeTHF, room temperature
  Crystalline form results: No precipitation
gas-liquid diffusion method, good solvent DMF (50 mg/mL), anti-solvent ACN, room temperature
  Crystalline form results: No precipitation
gas-liquid diffusion method, good solvent DMF (50 mg/mL), anti-solvent EtOAc, room temperature
  Crystalline form results: No precipitation
gas-liquid diffusion method, good solvent DMF (50 mg/mL), anti-solvent FA, room temperature
  Crystalline form results: No precipitation
gas-liquid diffusion method, good solvent DMF (50 mg/mL), anti-solvent Heptane, room temperature
  Crystalline form results: No precipitation
gas-liquid diffusion method, good solvent DMF (50 mg/mL), anti-solvent MTBE, room temperature
  Crystalline form results: No precipitation
gas-liquid diffusion method, good solvent MeOH (10 mg/mL), anti-solvent 2-MeTHF, room temperature
  Crystalline form results: No precipitation
gas-liquid diffusion method, good solvent MeOH (10 mg/mL), anti-solvent ACN, room temperature
  Crystalline form results: No precipitation
gas-liquid diffusion method, good solvent MeOH (10 mg/mL), anti-solvent FA, room temperature
  Crystalline form results: No precipitation
gas-liquid diffusion method, good solvent MeOH (10 mg/mL), anti-solvent Heptane, room temperature
  Crystalline form results: No precipitation
gas-liquid diffusion method, good solvent NMP (50 mg/mL), anti-solvent 2-MeTHF, room temperature
  Crystalline form results: Possibly an NMP solvate
gas-liquid diffusion method, good solvent NMP (50 mg/mL), anti-solvent ACN, room temperature
  Crystalline form results: Possibly an NMP solvate
gas-liquid diffusion method, good solvent NMP (50 mg/mL), anti-solvent EtOAc, room temperature
  Crystalline form results: Dissociation into a free base
gas-liquid diffusion method, good solvent NMP (50 mg/mL), anti-solvent FA, room temperature
  Crystalline form results: Possibly an NMP solvate
gas-liquid diffusion method, good solvent NMP (50 mg/mL), anti-solvent Heptane, room temperature
  Crystalline form results: Possibly an NMP solvate
gas-liquid diffusion method, good solvent NMP (50 mg/mL), anti-solvent MTBE, room temperature
  Crystalline form results: Possibly an NMP solvate
Slow volatilization method, solvent DCM/MeOH = 2-1, room temperature
  Crystalline form results: Crystalline form B
Slow volatilization method, solvent EtOH/EA = 2-1, room temperature
  Crystalline form results: Crystalline form A
Slow volatilization method, solvent EtOH, room temperature
  Crystalline form results: Crystalline form B
Slow volatilization method, solvent MeOH/FA = 2-1, room temperature
  Crystalline form results: Crystalline form B
Slow volatilization method, solvent MeOH, room temperature
  Crystalline form results: Crystalline form A
Solvent ACN—H2O 1-1, initial crystalline form A of methanesulfonate salt
  Crystalline form results: Crystalline form A
Solvent H2O, initial crystalline form A of methanesulfonate salt
  Crystalline form results: Crystalline form A
Solvent MeOH—H2O 1-1, initial crystalline form A of methanesulfonate salt
  Crystalline form results: Crystalline form A

## CC(C)N1Cc2cc(C(F)(F)F)ncc2-c2cnc(NCc3c(F)ccc4c3CCO4)n3cnc(c23)C1=O.O=S(=O)(O)O
anti-solvent method, anti-solvent Acetone
  XRPD results: Crystalline form B
anti-solvent method, anti-solvent Heptane
  XRPD results: Crystalline form A
Solvent 88% acetone, suspension, 40° C., 3 days, from crystalline form A of sulfate salt
  Crystalline form results: Crystalline form B
Solvent ACN, suspension, 40° C., 3 days, from crystalline form A of sulfate salt
  Crystalline form results: Crystalline form A of sulfate salt
Solvent ACN—H2O = 1:1, suspension, 40° C., 3 days, from crystalline form A of sulfate salt
  Crystalline form results: Crystalline form A
Solvent Acetone, suspension, 40° C., 3 days, from crystalline form A of sulfate salt
  Crystalline form results: Crystalline form A of sulfate salt
Solvent DCM/MeOH = 1:1, suspension, 40° C., 3 days, from crystalline form A of sulfate salt
  Crystalline form results: Crystalline form A
Solvent EtOAc, suspension, 40° C., 3 days, from crystalline form A of sulfate salt
  Crystalline form results: Sulfate salt forming into sulfate
Solvent EtOH, suspension, 40° C., 3 days, from crystalline form A of sulfate salt
  Crystalline form results: Sulfate salt forming into sulfate
Solvent EtOH—H2O = 3:1, suspension, 40° C., 3 days, from crystalline form A of sulfate salt
  Crystalline form results: Crystalline form A
Solvent IPA, suspension, 40° C., 3 days, from crystalline form A of sulfate salt
  Crystalline form results: Sulfate salt forming into sulfate
Solvent MeOH, suspension, 40° C., 3 days, from crystalline form A of sulfate salt
  Crystalline form results: Crystalline form A
Solvent MeOH—H2O = 3:1, suspension, 40° C., 3 days, from crystalline form A of sulfate salt
  Crystalline form results: Crystalline form A
Solvent THF, suspension, 40° C., 3 days, from crystalline form A of sulfate salt
  Crystalline form results: Crystalline form A of sulfate salt
Solvent Toluene, suspension, 40° C., 3 days, from crystalline form A of sulfate salt
  Crystalline form results: Crystalline form A of sulfate salt
